Here are results for two compounds from patent publication US5914341A, “Inhibitors of farnesyl-protein transferase” (Merck & Co., Inc., priority 1998, dated 1999).

For this assay, the target named is T1, human FPTase (Homo sapiens, UniProt P49354+P49356).
T1 construct: made in house
Put plainly: In vitro inhibition of ras farnesyl transferase (human FPTase assay). In kind it is biochemical. The following applies: [3H]-FPP incorporation, 100 nM Ras-CVIM substrate, 30 min; read-out: IC50, inhibitory activity against human FPTase.

Counter-ions that a name gives are not always drawn.

What is called IC50 is the concentration that inhibits the measured activity by half. As to `N#Cc1ccc(Cn2cncc2COC(=O)Nc2cccc(Cl)c2)cc1` [Example 1, N-(3-chlorophenyl)-O-[1-(4-cyanobenzyl)-5-imidazolylmethyl]-carbamate hydrochloride], the IC50 is under 30 µM. The same measure for `CCCCCN(C(=O)OCc1cncn1Cc1ccc(C#N)cc1)c1cccc(Cl)c1` [Example 2, N-(3-chlorophenyl)-N-(n-pentyl)-O-[1-(4-cyanobenzyl)-5-imidazolylmethyl]carbamate hydrochloride]: under 30 µM.
